Structures can show the parent of a compound that is named as a salt.
Experiments:
Aβtotal = assay: Screening for γ-secretase-modulating activity in SKNBE2 cells carrying APP 695 wild type: Aβtotal in cell supernatant (Alphalisa); format: cell-based; conditions: overnight incubation
Protocol: (§1) Pharmacology A) Screening of the Compounds of the Invention for γ-Secretase-Modulating Activity
(§2) Screening was carried out using SKNBE2 cells carrying the APP 695—wild type, grown in Dulbecco's Modified Eagle's Medium/Nutrient mixture F-12 (DMEM/NUT-mix F-12) (HAM) provided by Invitrogen (cat no. 10371-029) containing 5% Serum/Fe supplemented with 1% non-essential amino acids, 1-glutamine 2 mM, Hepes 15 mM, penicillin 50 U/ml (units/ml) en streptomycin 50 μg/ml. Cells were grown to near confluency.
(§3) The screening was performed using a modification of the assay as described in Citron et al (1997) Nature Medicine 3: 67. Briefly, cells were plated in a 384-well plate at 10^4 cells/well in Ultraculture (Lonza, BE12-725F) supplemented with 1% glutamine (Invitrogen, 25030-024), 1% non-essential amino acid (NEAA), penicillin 50 U/ml en streptomycin 50 μg/ml in the presence of test compound at different test concentrations. The cell/compound mixture was incubated overnight at 37° C., 5% CO2. The next day the media were assayed by two sandwich immuno-assays, for Aβ42 and Aβtotal.
(§4) Aβtotal and Aβ42 concentrations were quantified in the cell supernatant using the Aphalisa technology (Perkin Elmer). Alphalisa is a sandwich assay using biotinylated antibody attached to streptavidin coated donorbeads and antibody conjugated to acceptor beads. In the presence of antigen, the beads come into close proximity. The excitation of the donor beads provokes the release of singlet oxygen molecules that trigger a cascade of energy transfer in the acceptor beads, resulting in light emission. To quantify the amount of Aβ42 in the cell supernatant, monoclonal antibody specific to the C-terminus of Aβ42 (JRF/cAβ42/26) was coupled to the receptor beads and biotinylated antibody specific to the N-terminus of Aβ (JRF/AβN/25) was used to react with the donor beads. T quantify the amount of Aβtotal in the cell supernatant, monoclonal antibody specific to the N-terminus of Aβ (JRF/AβN/25) was coupled to the receptor beads and biotinylated antibody specific to the mid region of Aβ (biotinylated 4G8) was used to react with the donor beads.
(§5) To obtain the values reported in Table 3, the data are calculated as percentage of the maximum amount of amyloid Beta 42 measured in the absence of the test compound. The sigmoidal dose response curves were analyzed using non-linear regression analysis with percentage of the control plotted against the log concentration of the compound. A 4-parameter equation was used to determine the IC50.

Aβ42 = assay: Screening for γ-secretase-modulating activity in SKNBE2 cells carrying APP 695 wild type: Aβ42 in cell supernatant (Alphalisa); format: cell-based; conditions: overnight incubation
Protocol: as §1, §2, §3, §4, §5

[1] = Homo sapiens, SKNBE2, SKNBE2 cells carrying APP 695 wild type
[2] = SKNBE2 cells carrying APP 695 wild type

Row | melting point | IC50 (Aβtotal; Homo sapiens) | IC50 (Aβ42; [1]) | IC50 (Aβtotal) | IC50 (Aβ42; [2]) | SMILES
1 | 278.9 °C | – | – | – | – | COc1nc(Nc2nc3c(-c4ccc(F)cc4C)nccn3n2)ccc1-n1cnc(C)c1 [Compound 11, 8-(4-fluoro-2-methylphenyl)-N-[6-methoxy-5-(4-methyl-1H-imidazol-1-yl)-2-pyridinyl]-[1,2,4]triazolo[1,5-a]pyrazin-2-amine]
2 | 147.4 °C | > 15000 nM | 32 nM | – | – | COc1cc(C2CCCn3nc(Nc4ccc(-c5ccnc(C)c5)c(OC)c4)nc32)ccc1F (stereo not shown) [Compound 107, 8-(4-fluoro-3-methoxyphenyl)-5,6,7,8-tetrahydro-N-[3-methoxy-4-(2-methyl-4-pyridinyl)phenyl]-[1,2,4]triazolo[1,5-a]pyridin-2-amine]
3 | 249 °C | 9330 nM | 12 nM | – | – | COc1cc(Nc2nc3n(n2)CCCC3c2ccc(F)cc2C)ccc1-n1cnc(C)c1 (stereo not shown) [Compound 32, 8-(4-fluoro-2-methylphenyl)-5,6,7,8-tetrahydro-N-[3-methoxy-4-(4-methyl-1H-imidazol-1-yl)phenyl]-[1,2,4]triazolo[1,5-a]pyridin-2-amine]
4 | 148.4 °C | > 10000 nM | 29 nM | – | – | COc1cccc(C2CCCn3nc(Nc4ccc(-c5ccnc(C)c5)c(F)c4)nc32)c1 (stereo not shown) [Compound 102, N-[3-fluoro-4-(2-methyl-4-pyridinyl)phenyl]-5,6,7,8-tetrahydro-8-(3-methoxyphenyl)-[1,2,4]triazolo[1,5-a]pyridin-2-amine]
5 | 229.7 °C | 8130 nM | 19 nM | – | – | COc1cc(Nc2nc3n(n2)CCCC3c2ccc(C(F)(F)F)cc2)ccc1-n1cnc(C)c1 (stereo not shown) [Compound 50, 5,6,7,8-tetrahydro-N-[3-methoxy-4-(4-methyl-1H-imidazol-1-yl)phenyl]-8-[4-(trifluoromethyl)phenyl][1,2,4]triazolo[1,5-a]pyridin-2-amine]
6 | 234.4 °C | > 10000 nM | 71 nM | – | – | Cc1cc(-c2ccc(Nc3nc4n(n3)CCCC4c3c(F)cccc3Cl)cc2)ccn1 (stereo not shown) [Compound 116, 8-(2-chloro-6-fluorophenyl)-5,6,7,8-tetrahydro-N-[4-(2-methyl-4-pyridinyl)phenyl]-[1,2,4]triazolo[1,5-a]pyridin-2-amine]
7 | 214.9 °C | > 10000 nM | 50 nM | – | – | COc1cc(Nc2nc3n(n2)CCCC3c2ccccc2F)ccc1-c1ccnc(C)c1 (stereo not shown) [Compound 99, 8-(2-fluorophenyl)-5,6,7,8-tetrahydro-N-[3-methoxy-4-(2-methyl-4-pyridinyl)phenyl]-[1,2,4]triazolo[1,5-a]pyridin-2-amine]
8 | 248 °C | > 10000 nM | 65 nM | – | – | COc1cc(Nc2nc3n(n2)CCNC3c2ccccc2C(F)(F)F)ccc1-n1cnc(C)c1 (stereo not shown) [Compound 9, 5,6,7,8-tetrahydro-N-[3-methoxy-4-(4-methyl-1H-imidazol-1-yl)phenyl]-8-[2-(trifluoromethyl)phenyl]-[1,2,4]triazolo[1,5-a]pyrazin-2-amine]
9 | 202.9 °C | > 10000 nM | 55 nM | – | – | COc1cc(Nc2nc3n(n2)CCOC3c2ccccc2C(F)(F)F)ccc1-n1cnc(C)c1 (stereo not shown) [Compound 47, 5,6-dihydro-N-[3-methoxy-4-(4-methyl-1H-imidazol-1-yl)phenyl]-8-[2-(trifluoromethyl)phenyl]-8H-[1,2,4]triazolo[5,1-c][1,4]oxazin-2-amine]
10 | 173.1 °C | > 10000 nM | 44 nM | – | – | COc1cc(Nc2nc3n(n2)CCCC3c2cc(C(F)(F)F)ccc2F)ccc1-c1ccnc(C)c1 (stereo not shown) [Compound 182, 8-[2-fluoro-5-(trifluoromethyl)phenyl]-5,6,7,8-tetrahydro-N-[3-methoxy-4-(2-methyl-4-pyridinyl)phenyl]-[1,2,4]triazolo[1,5-a]pyridin-2-amine]
11 | 258.5 °C | > 10000 nM | 29 nM | – | – | COc1cc(Nc2nc3n(n2)CCCC3c2ccccc2C(F)(F)F)ccc1-c1ocnc1C (stereo not shown) [Compound 38, 5,6,7,8-tetrahydro-N-[3-methoxy-4-(4-methyl-5-oxazolyl)phenyl]-8-[2-(trifluoromethyl)phenyl]-[1,2,4]triazolo[1,5-a]pyridin-2-amine]
12 | 206.9 °C | 7590 nM | 32 nM | – | – | COc1cc(Nc2nc3c(-c4ccccc4C(F)(F)F)nccn3n2)ccc1-n1cnc(C)c1 [Compound 8, N-[3-methoxy-4-(4-methyl-1H-imidazol-1-yl)phenyl]-8-[2-(trifluoromethyl)phenyl]-[1,2,4]triazolo[1,5-a]pyrazin-2-amine]
13 | 268.2 °C | – | – | – | – | COc1nc(Nc2nc3c(-c4ccc(F)cc4C)nccn3n2)ccc1-c1ccnc(C)c1 [Compound 12, 8-(4-fluoro-2-methylphenyl)-N-(2-methoxy-2′-methyl[3,4′-bipyridin]-6-yl)-[1,2,4]triazolo[1,5-a]pyrazin-2-amine]
14 | – | 8510 nM | 14 nM | – | – | COc1cc(Nc2nc3n(n2)CCCC3c2ccccc2Cl)ccc1-n1cnc(C)c1 (stereo not shown) [Compound 27, 8-(2-chlorophenyl)-5,6,7,8-tetrahydro-N-[3-methoxy-4-(4-methyl-1H-imidazol-1-yl)phenyl]-[1,2,4]triazolo[1,5-a]pyridin-2-amine]
15 | – | > 10000 nM | 501 nM | – | – | COc1cc(C(=O)Nc2nc3n(n2)CCCC3c2ccc(F)cc2)ccc1-n1cnc(C)c1 (stereo not shown) [Compound 36, N-[8-(4-fluorophenyl)-5,6,7,8-tetrahydro[1,2,4]triazolo[1,5-a]pyridin-2-yl]-3-methoxy-4-(4-methyl-1H-imidazol-1-yl)-benzamide]
16 | – | – | – | > 10000 nM | 1100 nM | COc1nc(Nc2nc3c(-c4ccc(F)cc4C)nccn3n2)ccc1-n1cnc(C)c1 [Compound 186, 8-(4-fluoro-2-methylphenyl)-N-[6-methoxy-5-(4-methyl-1H-imidazol-1-yl)-2-pyridinyl]-[1,2,4]triazolo[1,5-a]pyrazin-2-amine.HCl]
17 | – | 3980 nM | 16 nM | – | – | COc1cc(Nc2nc3c(N4CCCC(C(F)(F)F)C4)cccn3n2)ccc1-c1ccnc(C)c1 (stereo not shown) [Compound 181, N-[3-methoxy-4-(2-methyl-4-pyridinyl)phenyl]-8-[3-(trifluoromethyl)-1-piperidinyl]-[1,2,4]triazolo[1,5-a]pyridin-2-amine.1.5HCl.1.7H2O]
18 | – | > 10000 nM | 44 nM | – | – | Cc1cc(-c2ccc(Nc3nc4n(n3)CCOC4c3ccccc3C(F)(F)F)cc2)ccn1 (stereo not shown) [Compound 85, 5,6-dihydro-N-[4-(2-methyl-4-pyridinyl)phenyl]-8-[2-(trifluoromethyl)phenyl]-8H-[1,2,4]triazolo[5,1-c][1,4]oxazin-2-amine]
19 | – | – | – | > 10000 nM | 56 nM | COc1ccc(C2CCCn3nc(Nc4ccc(-c5ccnc(C)c5)c(OC)c4)nc32)cc1F (stereo not shown) [Compound 104, 8-(3-fluoro-4-methoxyphenyl)-5,6,7,8-tetrahydro-N-[3-methoxy-4-(2-methyl-4-pyridinyl)phenyl]-[1,2,4]triazolo[1,5-a]pyridin-2-amine.1.3HCl.2.3H2O]
20 | – | – | – | > 10000 nM | 31 nM | COc1cccc(C2CCCn3nc(Nc4ccc(-n5cnc(C)c5)c(OC)c4)nc32)c1 (stereo not shown) [Compound 35, 5,6,7,8-tetrahydro-N-[3-methoxy-4-(4-methyl-1H-imidazol-1-yl)phenyl]-8-(3-methoxyphenyl)-[1,2,4]triazolo[1,5-a]pyridin-2-amine.2HCl.H2O]
21 | – | > 10000 nM | 9 nM | – | – | COc1cc(Nc2nc3c(-c4ccc(F)cc4C)nccn3n2)ccc1-n1cnc(C)c1 [Compound 10, 8-(4-fluoro-2-methylphenyl)-N-[3-methoxy-4-(4-methyl-1H-imidazol-1-yl)phenyl]-[1,2,4]triazolo[1,5-a]pyrazin-2-amine]
22 | – | > 10000 nM | 145 nM | – | – | Cc1cc(-c2ccc(Nc3nc4n(n3)CCCC4c3ccccc3C(F)(F)F)cc2)c(C)cn1 (stereo not shown) [Compound 45, N-[4-(2,5-dimethyl-4-pyridinyl)phenyl]-5,6,7,8-tetrahydro-8-[2-(trifluoromethyl)phenyl]-[1,2,4]triazolo[1,5-a]pyridin-2-amine]
23 | – | > 10000 nM | 126 nM | – | – | Cc1ncoc1-c1ccc(Nc2nc3c(-c4ccccc4C(F)(F)F)cccn3n2)cc1 [Compound 24, N-[4-(4-methyl-5-oxazolyl)phenyl]-8-[2-(trifluoromethyl)phenyl]-[1,2,4]triazolo[1,5-a]pyridin-2-amine]

From patent US9145399B2, “Substituted bicyclic triazole derivatives as gamma secretase modulators” (Janssen Pharmaceuticals, Inc., priority 2010, dated 2015)
